Test results: patent US12584904B2, “Methods for monitoring physiological status of a body organ” (BioCrine AB, priority 2012, dated 2026)
Entries after “also recorded” stand apart in the source; their conditions may differ.

Experiments:
[1] = system: beta cells of ob/ob mouse islets; assay: Immunohistochemistry of transplanted eye and pancreas sections after leptin treatment; format: in vivo; conditions: for proliferation of beta cells (insulin and Ki67 staining): end of leptin treatment
Description: Dissected tissues were briefly rinsed with PBS, fixed for 48 h at room temperature using formalin, and dehydrated and embedded in paraffin. Five-micron thick sections mounted on precoated microscope slides were dewaxed by xylene and progressively rehydrated before processing. Insulin was stained using chicken anti-insulin (1:200 dilution, Abcam) followed by goat anti-chicken Alexa™ 488 (1:1000 dilution, Invitrogen) antibodies; blood vessels were stained using rat anti-mouse CD31 (1:50 dilution, BD Pharmingen), followed by incubation of biotinylated goat anti-rat (5 μg/ml, Vector Labs) and amplification with HRP-streptavidin/Alexa™ 647-tyramide (Invitrogen); proliferation was assessed by using mouse anti-human Ki67 (1:50 dilution, Novocastra) together with M.O.M. biotinylated anti-mouse IgG (Vector Labs), and amplified using HRP-streptavidin/Alexa 647-tyramide. Nuclei were stained and slides were preserved by cover glass mounting using ProLong™ Gold Antifade Reagent with DAPI (Invitrogen). Slides were imaged using a BD Pathway 855 system (BD Biosciences). Insulin, CD31, Ki67 and DAPI stainings were imaged using a 20×/0.75NA UApo/340 Olympus objective, and overviews of pancreatic sections stained by hematoxylin/eosin were obtained by montage capture mode using a 4×/0.16NA UPlan SApo Olympus objective.
AutoQuant X2 (Media Cybernetics) was used for blind deconvolution of all in vivo confocal images before image analysis. Islet volume was analyzed based on the backscatter signal channel, using Matlab™ and the Image Processing Toolbox (Mathworks). The islet “equatorial volume”, i.e. the volume from the top of the islet down to the calculated equator, was used to represent the volume and calculate islet growth. We analyzed a minimum of 3 islet grafts per animal to determine islet growth, with a minimum of 3 mice per category. Individual vessel segments were identified at different imaging time points and their diameter measured using Volocity™ (Perkin Elmer). We established image analysis protocols in Volocity™ for automated analysis of histological sections. […]

ob/ob mice [2] = assay: Intraperitoneal glucose tolerance test after leptin treatment; format: in vivo, mouse
Description: (§1) Having witnessed the behavior of individual islets in response to food over-consumption and insulin resistance, we next questioned if this growth could be refrained or even reversed by treating the ob/ob mice with leptin. Mice were injected intraperitoneally every day between 3 and 4 months of age. The physiological effects of this treatment were monitored regularly using different parameters.
(§2) Body weight and blood glucose levels were measured in a minimum of 7 mice. Glucose concentrations were obtained using Accu-Chek™ Aviva monitoring system (Roche). Glucose tolerance tests were performed by intraperitoneal injection of 2 mg glucose per gram body weight in mice fasted for 16 hours (n≥5). Plasma insulin concentrations from a minimum of 3 mice per condition were measured using mouse insulin ELISA plates (Mercodia). Leptin treatment was performed by daily intraperitoneal injections of 1.5 μg/g body weight of recombinant human leptin (Amylin Pharmaceuticals), and sham treatment was performed by intraperitoneal injection of water instead of leptin.

ob/ob mice [3] = assay: Physiological measurements during leptin treatment of ob/ob mice; format: in vivo, mouse
Description: as §1
Leptin treatment was performed by daily intraperitoneal injections of 1.5 μg/g body weight of recombinant human leptin (Amylin Pharmaceuticals), and sham treatment was performed by intraperitoneal injection of water instead of leptin.
as §2

[4] = system: islet grafts in the anterior chamber of the eye of ob/ob mice; assay: Longitudinal in vivo confocal imaging of intraocular islet grafts under leptin treatment; parameters: species or system mouse
Excerpt: (§3) Islet grafts in mice were imaged in vivo at specific time points after transplantation. We used an upright laser scanning confocal microscope based on TCS-SP2-AOBS (Leica) with a long-distance water-dipping objective (Leica HXC-APO 10×/0.30NA), and a custom-built stereotaxic head holder allowing to position the mouse eye containing the engrafted islets towards the objective. Viscotears (Novartis) was used as immersion liquid between the eye and the objective, and isoflurane was used to anesthetize the mice during in vivo imaging. Imaging of islet morphology was done by laser illumination at 633 nm, and collection of backscattered light at the same wavelength.
Islets were isolated from female donor mice and transplanted into the anterior chamber of the eye of male recipients, using a previously described technique (2). We anesthetized mice using isoflurane (Baxter), and approximately 10-20 islets were transplanted into the anterior chamber of the mouse eye. Islets used for transplantation were selected to be of similar size for each experiment, independent of the mouse genotype. The mice were injected subcutaneously with Temgesic™ (Schering-Plough) for postoperative analgesia.
as §3, with “transplantation as previously described (2).” for “transplantation.”, “Viscotears™” for “Viscotears”, “wavelength. For visualization of blood vessels we injected 100 μl of a solution containing 2.5 mg/ml of 500 kDa FITC-labeled dextran (Invitrogen) into the tail vein, and imaged fluorescence using 496 nm excitation wavelength. Scanning speed and laser intensities were adjusted to avoid any cellular damage to the mouse eye or islet graft.” for “wavelength.”
AutoQuant X2 (Media Cybernetics) was used for blind deconvolution of all in vivo confocal images before image analysis. Islet volume was analyzed based on the backscatter signal channel, using Matlab™ and the Image Processing Toolbox (Mathworks). The islet “equatorial volume”, i.e. the volume from the top of the islet down to the calculated equator, was used to represent the volume and calculate islet growth. We analyzed a minimum of 3 islet grafts per animal to determine islet growth, with a minimum of 3 mice per category. Individual vessel segments were identified at different imaging time points and their diameter measured using Volocity™ (Perkin Elmer). We established image analysis protocols in Volocity™ for automated analysis of histological sections. The average beta cell section area was obtained by dividing the insulin-stained area by the total number of DAPI-stained nuclei enclosed in this area (minimum of 1000 cells per tissue). Beta cell proliferation rate was obtained by counting Ki67-positive nuclei and dividing by the total number of DAPI-stained nuclei in insulin-positive cells (minimum of 10000 cells per transplanted eye or pancreas). Volocity™ was used for image display and Photoshop CS5 (Adobe) for image assembly.

[5] = daily i.p. leptin 1.5 μg/g, during treatment

## leptin: recombinant human leptin (Amylin Pharmaceuticals), hormone encoded by the ob gene
[1]; engrafted islets (transplanted eye)
  proliferation of beta cells (insulin and Ki67 staining): attenuated; also recorded: virtually abolished
[1]; following leptin treatment, transplanted or endogenous pancreatic islets, versus age-matched untreated control mice
  average beta cell size: no significant difference compared to age-matched untreated control mice
[1]; in situ pancreatic islets
  proliferation of beta cells (insulin and Ki67 staining): attenuated; also recorded: virtually abolished
ob/ob mice [2]; ob/ob mice at end of treatment period, 2 mg glucose/g i.p., 16 h fasted
  glucose handling in intraperitoneal glucose tolerance test (glucose excursions, AUC): normalized; also recorded: glucose excursions similar to those obtained from age-matched control mice
ob/ob mice [2]; ob/ob mice, end of leptin treatment
  insulin sensitivity: beneficial impact
ob/ob mice [3]; after end of leptin treatment, mass similar to untreated ob/ob about one month later
  body weight after the end of the treatment period: rapidly increased
ob/ob mice [3]; daily i.p. leptin 1.5 μg/g between 3 and 4 months of age, during treatment
  body weight: decrease
ob/ob mice [3]; [5]
  blood glucose: decrease
  insulin concentrations (plasma): decrease
ob/ob mice [3]; daily i.p. leptin, during treatment
  appetite: visibly reduced
[4]; ob/ob mice, after end of leptin or sham treatment
  islet growth after the end of treatment: no difference in islet growth
[4]; ob/ob mice, during leptin treatment versus sham treatment
  islet growth (islet volume) of islet transplants: reversal of islet growth; also recorded: abolished and partially reversed
[4]; ob/ob mice, early stage after leptin treatment
  angiogenesis in the islet grafts: could observe angiogenesis
[4]; ob/ob mice, leptin treatment, dextran-FITC imaging
  vessel diameter in islet grafts: rapid effect on blood vessel diameters; also recorded: decrease
[4]; transplanted islets in leptin-treated ob/ob mice
  granulation of islet cells (reflective optical properties, backscatter): regranulation
